From ChEMBL document CHEMBL1141796, “Hirsutide, a cyclic tetrapeptide from a spider-derived entomopathogenic fungus, Hirsutella sp” (J Nat Prod, 2005)
pIC50: −log10 of the molar value. Calls of active or inactive are those of the source. No cut-off for these calls is given here.

What was measured:
[1] = system: Trichophyton mentagrophytes; assay: Antifungal activity against Trichophyton mentagrophytes by agar diffusion assay; type: functional, organism-based
Amorphotheca resinae = assay: Antifungal activity against Cladosporium resinae by agar diffusion assay; type: functional, organism-based
Bacillus subtilis = assay: Antibacterial activity against Bacillus subtilis by agar diffusion assay; type: functional, organism-based
Candida albicans = assay: Antifungal activity against Candida albicans by agar diffusion assay; type: functional, organism-based
P388 = assay: Cytotoxicity against mouse P388 cells; type: functional, cell-based
Escherichia coli = assay: Antibacterial activity against Escherichia coli by agar diffusion assay; type: functional, organism-based

Compound: CC(=O)O[C@@H]1/C=C/[C@@](C)(O)C(=O)[C@@H](C)C/C=C/[C@H]2[C@@H]3O[C@]3(C)[C@@H](C)[C@H]3[C@H](Cc4ccccc4)NC(=O)[C@@]312 [CYTOCHALASIN Q]
- Activity [1]: inactive
- Activity (Amorphotheca resinae): inactive
- Activity (Bacillus subtilis): inactive
- Activity (Candida albicans): inactive
- pIC50 (P388): 5.62
- Activity (Escherichia coli): inactive
